{"source": "patent US20220041691A1", "about": "“METHODS FOR DIAGNOSING OR TREATING POST-TRAUMATIC STRESS DISORDER, AND COMPOSITIONS THEREFOR” (Centre for Addiction and Mental Health, priority 2018, published 2022)", "key": {"[1]": {"molecular_target": "T1, GR-FKBP51 complex (Mus musculus, UniProt Q64378)", "T1 construct": "from tissue; host or cells: C57Bl/6 mouse brain (acute slices; whole-brain lysate) and blood lymphocytes", "T1 sequence (Q64378 1-456)": "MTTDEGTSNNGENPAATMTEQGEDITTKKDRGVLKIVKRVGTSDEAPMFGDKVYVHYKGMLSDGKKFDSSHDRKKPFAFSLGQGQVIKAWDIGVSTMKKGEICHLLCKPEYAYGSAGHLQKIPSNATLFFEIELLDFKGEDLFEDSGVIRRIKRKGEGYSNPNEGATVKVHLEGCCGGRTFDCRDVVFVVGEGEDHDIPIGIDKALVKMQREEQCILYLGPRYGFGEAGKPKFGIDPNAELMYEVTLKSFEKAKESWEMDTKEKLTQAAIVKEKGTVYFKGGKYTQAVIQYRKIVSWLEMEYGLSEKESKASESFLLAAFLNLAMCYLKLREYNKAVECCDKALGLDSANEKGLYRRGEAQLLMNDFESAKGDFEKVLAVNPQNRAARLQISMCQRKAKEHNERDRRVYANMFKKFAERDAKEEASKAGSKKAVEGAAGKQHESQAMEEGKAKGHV", "assay": "Co-immunoprecipitation of GR-FKBP51 complex in acute mouse brain slices treated with peptide", "assay_type": "cell-based", "conditions": "versus control TAT peptide", "method": "Thus, it is concluded that the GRNT-4-1 region is important for GR-FKBP51 complex formation, and that GRpep disrupted the GR-FKBP51 complex.\n(§1) Co-immunoprecipitation and Western blot analyses were performed as previously described.^24, 25, 26 For co-immunoprecipitation, 500˜1000 μg solubilized protein was extracted from whole mouse brain and incubated with primary antibody or control IgG (2˜4 μg) for 4 hrs at 4° C., followed by the addition of 25 μl protein A/G plus agarose (Santa Cruz Biotechnology) for 12 hrs. Pellets were washed, boiled for 5 min in SDS sample buffer and subjected to SDS-PAGE. 50˜100 μg of total protein extract was used as control in each experiment. After transfer of proteins into nitrocellulose, membranes were Western blotted with the primary antibodies. The intensity of protein level was quantified by densitometry (software: ImageLab, Bio-Rad).\n(§2) Acute brain slices (350 μm thick) were prepared from C57Bl/6 mice with a McIlwain tissue chopper (Mickle Laboratory Engineering, Gomshall, United Kingdom). After being dissected from the brain, mouse cerebral hemispheres were left for 5 min in ice-cold artificial cerebrospinal fluid (aCSF) containing 126 mM NaCl, 2.5 mM KCl, 1 mM MgCl2, 1 mM CaCl2, 1.25 mM KH2PO4, 26 mM NaHCO3 and 20 mM glucose, which was bubbled continuously with carbogen (95% O2/5% CO2). […]"}, "[2]": {"tested_on": "fear-conditioned mice", "assay": "Cued fear conditioning, systemic (i.p.) peptide delivery", "assay_type": "in vivo, mouse", "method": "Next, testing was performed to determine whether TAT-GRpep can block the emergence of PTSD-like fear-related behaviours when administrated systemically. Animals underwent five rounds of CS-US pairings followed by 5 days of extinction training before the expression of fear in response to the learned cue was assessed (FIG. 4A). Mice were injected with either TAT-GRpep or TAT intraperitoneally (3 nmol/g, i.p.) one hour before the test.\nFurthermore, testing was performed to determine whether disrupting the GR-FKBP51 complex reduced consolidation of cued fear memory. Thus, TAT or TAT-GRpep was administered two hours after the end of fear conditioning training (FIG. 4C), before five consecutive daily extinction sessions of cue exposure without shock. […] This may therefore indicate a potential approach to both preventing and treating PTSD-like behaviour in the aftermath of trauma, for example.\nAnimals were first given a five-minute habituation to the apparatus (Habitest, Colbourne Instruments). Then, animals were exposed to 30 seconds of cue exposure (an in-house white light), which co-terminated with one second of foot-shock (0.5 mA). The cue exposure and foot-shock were repeated five times, intermitted by 5-minute inter-trial intervals. Following the conditioning, animals were subjected to 2-5 days of extinction before the assessment of their cued fear memory, which consisted of 15 rounds of 30-second cue exposure, with 30-second inter-trial intervals (adapted from Andero et al.).^48\nThe expression of fear (in a different context from training) was assessed 24 hours after the last extinction training. The assessment consisted of a three-minute period of habituation (absence of CS) and a sequent three-minute trial of conditioned cues. The duration of freezing behaviors was recorded by a blinded experimenter. Peptide treatment was either administered 2 hours after the conditioning or 30 minutes before the behavioral assessment."}, "[3]": {"tested_on": "GR phosphorylation at S211", "assay": "Western blot of GR phosphorylation at S211 in brain lysate of fear-conditioned mice", "assay_type": "in vivo, mouse", "conditions": "brain lysate of fear-conditioned mice injected with TAT or TAT-GRpep; p<0.05, n=3", "excerpt": "To further investigate these findings, surface plasmon resonance (SPR) was used to estimate association and dissociation rates between GR and FKBP51. […] Thus, GR S211 phosphorylation seems to reduce GR affinity for FKBP51. Conversely, disruption of the GR-FKBP51 complex with TAT-GRpep could increase GR S211 phosphorylation, which is what was observed when comparing fear-conditioned mice treated with TAT-GRpep vs. TAT control or no treatment (FIG. 5 I-J).\nas §1, with “Bio-Rad). […]” for “Bio-Rad).”"}, "[4]": {"tested_on": "GR-FKBP52 complex", "assay": "Co-immunoprecipitation of GR-FKBP52 complex in mouse brain slices", "assay_type": "cell-based", "conditions": "10 μM, 30 min, vs untreated controls or TAT alone, p<0.05, n=3", "method": "(§3) To test this hypothesis, the effect of TAT-GRpep on GR-FKBP52 levels was examined using co-immunoprecipitation. […] Similar results were also obtained using confocal microscope in primary mouse neuron cultures.\nas §1, §2"}, "[5]": {"tested_on": "nuclear GR", "assay": "Nuclear protein isolation, nuclear GR in mouse brain slices", "assay_type": "cell-based", "conditions": "10 μM, 30 min, vs TAT or untreated controls, p<0.001, n=3", "method": "as §3\nAcute brain slices (350 μm thick) were prepared from C57Bl/6 mice with a McIlwain tissue chopper (Mickle Laboratory Engineering, Gomshall, United Kingdom). After being dissected from the brain, mouse cerebral hemispheres were left for 5 min in ice-cold artificial cerebrospinal fluid (aCSF) containing 126 mM NaCl, 2.5 mM KCl, 1 mM MgCl2, 1 mM CaCl2, 1.25 mM KH2PO4, 26 mM NaHCO3 and 20 mM glucose, which was bubbled continuously with carbogen (95% O2/5% CO2). Freshly cut slices were placed in an incubating chamber with carbogenated aCSF and recovered from stress at 37° C. for 1 hour. Slices were then treated with TAT or TAT-GRpep and harvested for Western blot analysis.\nNuclear protein isolation assays were performed in acute mouse brain slices or mouse brain tissue using the Nuclear Protein Extraction Kit (Bio Basic Inc., Amherst, N.Y.). Briefly, after treatment with TAT or TAT-GRpep, mouse brain slices were harvested for nuclear protein extraction according to the manufacturer's instructions."}}, "note": "Entries after “also recorded” stand apart in the source; their conditions may differ.", "data": [{"sequence": "GRKKRRQRRRPQSPWRSDLLIDENCLL (Amino Acid Sequence of TAT-GRpep Peptide)", "values": [{"measurement": "GR-FKBP51 complex level (co-immunoprecipitation)", "setting": "[1]", "result": "able to disrupt the GR-FKBP51 complex; also recorded: reduced GR-FKBP51 levels"}, {"measurement": "duration of freezing with the CS", "setting": "[2]; 3 nmol/g i.p. one hour before the test, after 5 days of extinction training, three-minute cue trial, p<0.05", "result": "34.1 ± 6.7", "unit": "s"}, {"measurement": "freezing behavior during habituation period without CS", "setting": "[2]; 3 nmol/g i.p. one hour before the test, TAT-GRpep vs control group, p=NS", "result": "no difference in freezing behavior"}, {"measurement": "cued freezing behaviours (FIG. 4D)", "setting": "[2]; peptide administered after fear conditioning, before extinction sessions, p<0.05", "result": "reduced cued freezing behaviours"}, {"measurement": "duration of freezing with the CS (consolidation of cued fear memory)", "setting": "[2]; peptide administered two hours after end of fear conditioning, tested 24 hours after last of five daily extinction sessions, p<0.05", "result": "55.9 ± 3.3", "unit": "s"}, {"measurement": "GR phosphorylation at S211", "setting": "[3]", "result": "able to block the decrease of GR phosphorylation at S211; also recorded: blocked the decrease in GR S211 phosphorylation"}, {"measurement": "GR-FKBP52 complex (FKBP52 co-immunoprecipitated by GR antibody)", "setting": "[4]", "result": "more FKBP52 was co-immunoprecipitated by GR antibody; also recorded: significantly increased the amount of GR-FKBP52 complex"}, {"measurement": "nuclear GR level / proportion of GR in the nucleus", "setting": "[5]", "result": "higher levels of nuclear GR; also recorded: significantly increased"}]}]}
